Data: ChEMBL document CHEMBL5365466, “Discovery of Triazolyl Derivatives of Cucurbitacin B Targeting IGF2BP1 against Non-Small Cell Lung Cancer” (J Med Chem, 2023)
Calls of active or inactive are those of the source. The rule behind the calls is not given here.

What was measured:
[1] = Selectivity index, ratio of IC50 for antiproliferative activity against human L02 cells to IC50 for antiproliferative activity against human HepG2 cells; type: toxicity, cell-based; conditions: L02 cells versus HepG2 cells, read-out: Ratio IC50
HCT-116 [2] = test: Antiproliferative activity against human HCT-116 cells assessed as cell growth inhibition at 1 uM incubated for 72 hrs by SRB assay; type: functional
A549 [3] = test: Induction of cell cycle arrest in human A549 cells assessed as accumulation of cells at S phase at 0.1 uM incubated for 24 hrs by PI staining based flow cytometric analysis (reference value: 23 %); type: functional
A549 [4] = test: Antitumor activity against human A549 cells xenografted in BALB/c mouse assessed as increase in nuclear pyknosis at 0.5 mg/kg,ip administrated for 21 days by hematoxylin and eosin staining based microscopic analysis; type: functional, organism-based; conditions: time 21.0 day
A549 [5] = test: Antitumor activity against human A549 cells xenografted in BALB/c mouse assessed as decrease in tumor volume at 0.5 mg/kg,ip administrated for 21 days; type: functional, organism-based; conditions: time 21.0 day
CFPAC-1 = test: Antiproliferative activity against human CFPAC-1 cells assessed as cell growth inhibition incubated for 72 hrs by SRB assay; type: functional, cell-based; conditions: CFPAC-1, 72 h
A549 [6] = test: Induction of cell cycle arrest in human A549 cells assessed as accumulation of cells at S phase at 0.5 uM incubated for 24 hrs by PI staining based flow cytometric analysis (reference value: 23 %); type: functional
[7] = Selectivity index, ratio of IC50 for antiproliferative activity against human L02 cells to IC50 for antiproliferative activity against human HeLa cells; type: toxicity, cell-based; conditions: L02 cells versus HeLa cells, read-out: Ratio IC50
HCT-116 [8] = test: Antiproliferative activity against human HCT-116 cells assessed as cell growth inhibition at 0.1 uM incubated for 72 hrs by SRB assay; type: functional
[9] = Selectivity index, ratio of IC50 for antiproliferative activity against human L02 cells to IC50 for antiproliferative activity against human MCF7 cells; type: toxicity, cell-based; conditions: L02 cells versus MCF7 cells, read-out: Ratio IC50
A549 [10] = test: Induction of cell cycle arrest in human A549 cells assessed as accumulation of cells at G1 phase at 0.5 uM incubated for 24 hrs by PI staining based flow cytometric analysis (reference value: 65.6 %); type: functional
PANC-1 = test: Antiproliferative activity against human PANC-1 cells assessed as cell growth inhibition incubated for 72 hrs by SRB assay; type: functional, cell-based; conditions: PANC-1, 72 h
[11] = target: T1, Insulin-like growth factor 2 mRNA-binding protein 1 (Homo sapiens, UniProt Q9NZI8); test: Binding affinity to human recombinant IGF2BP1 assessed as dissociation constant by microscale thermophoresis analysis
T1 sequence (Q9NZI8 whole entry): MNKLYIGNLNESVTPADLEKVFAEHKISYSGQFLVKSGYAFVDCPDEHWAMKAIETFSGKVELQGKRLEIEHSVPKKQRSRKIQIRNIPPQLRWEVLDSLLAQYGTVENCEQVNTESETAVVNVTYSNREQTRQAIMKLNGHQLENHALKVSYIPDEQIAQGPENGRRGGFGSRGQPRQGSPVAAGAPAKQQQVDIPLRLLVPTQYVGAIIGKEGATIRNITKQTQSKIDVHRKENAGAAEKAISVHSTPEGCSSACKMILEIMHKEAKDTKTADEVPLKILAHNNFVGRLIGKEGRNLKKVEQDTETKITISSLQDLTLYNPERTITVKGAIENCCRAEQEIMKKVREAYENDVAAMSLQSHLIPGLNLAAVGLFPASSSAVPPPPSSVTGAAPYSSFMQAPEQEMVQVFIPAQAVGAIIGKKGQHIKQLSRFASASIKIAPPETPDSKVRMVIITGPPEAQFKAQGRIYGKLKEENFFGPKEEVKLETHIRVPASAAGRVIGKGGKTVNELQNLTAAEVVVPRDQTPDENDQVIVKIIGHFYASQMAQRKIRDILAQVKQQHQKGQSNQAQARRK

A549 [12] = test: Induction of autophagy in human A549 cells assessed as upregulation of Beclin-1 expression at 0.1 to 0.5 uM incubated for 48 hrs by Western blotting analysis; type: functional, cell-based; conditions: dose 0.1-0.5 µM
[13] = Acute toxicity in C57BL/6J mouse assessed as change in body weight at 0.75 mg/kg,ip measured after 14 days; type: organism-based; conditions: in vivo, 336 h, time 14 day
[14] = Antiproliferative activity against human L02 cells assessed as cell growth inhibition at 0.1 uM incubated for 72 hrs by SRB assay; type: toxicity, cell-based
[15] = target: T1, Insulin-like growth factor 2 mRNA-binding protein 1; test: Binding affinity to IGF2BP1 in human A549 cells assessed as protein stabilization at 1 uM at 46 degreeC incubated for 2 hrs by CETSA; type: cell-based
[16] = Antiproliferative activity against human L02 cells assessed as cell growth inhibition incubated for 72 hrs by SRB assay; type: toxicity, cell-based
[17] = target: T1, Insulin-like growth factor 2 mRNA-binding protein 1; test: Binding affinity to IGF2BP1 in human A549 cells assessed as protein stabilization at 1 uM at 49 degreeC incubated for 2 hrs by CETSA; type: cell-based
MCF7 = test: Antiproliferative activity against human MCF7 cells assessed as cell growth inhibition incubated for 72 hrs by SRB assay; type: functional, cell-based; conditions: MCF7, 72 h
A549 [18] = test: Induction of cell cycle arrest in human A549 cells assessed as accumulation of cells at G1 phase at 0.1 uM incubated for 24 hrs by PI staining based flow cytometric analysis (reference value: 65.6 %); type: functional
[19] = target: T1, Insulin-like growth factor 2 mRNA-binding protein 1; test: Binding affinity to IGF2BP1 in human A549 cells assessed as protein stabilization at 1 uM at 55 degreeC incubated for 2 hrs by CETSA; type: cell-based
[20] = target: T1, Insulin-like growth factor 2 mRNA-binding protein 1; test: Binding affinity to IGF2BP1 in human A549 cells assessed as protein stabilization at 1 uM at 52 degreeC incubated for 2 hrs by CETSA; type: cell-based
[21] = Selectivity index, ratio of IC50 for antiproliferative activity against human L02 cells to IC50 for antiproliferative activity against human BXPC-3 cells; type: toxicity, cell-based; conditions: L02 cells versus BXPC-3 cells, read-out: Ratio IC50
A549 [22] = test: Induction of autophagy in human A549 cells assessed as upregulation of LC3II/LC3I ratio at 0.1 to 0.5 uM incubated for 48 hrs by Western blotting analysis; type: functional, cell-based; conditions: dose 0.1-0.5 µM

## CC(=O)OC(C)(C)/C=C/C(=O)[C@](C)(O)[C@H]1[C@H](O)C[C@@]2(C)[C@@H]3CC=C4[C@@H](C[C@H](OC(=O)Cn5ncn(-c6ccc(F)cc6)c5=O)C(=O)C4(C)C)[C@]3(C)C(=O)C[C@]12C
[1]
  selectivity ratio: 1.25
HCT-116 [2]
  inhibition at 1 µM: 84.1%
A549 [3]
  Activity: 31.1%
A549 [4]
  Activity: Active
A549 [5]
  Activity: Active
CFPAC-1
  IC50: 37 nM
A549 [6]
  Activity: 8.96%
[7]
  selectivity ratio: 6.67
HCT-116 [8]
  inhibition at 0.1 µM: 73.1%
[9]
  selectivity ratio: 1.79
A549 [10]
  Activity: 51.3%
PANC-1
  IC50: 88 nM
[11]
  Kd: 10.9 nM
A549 [12]
  Activity: inactive
[13]
  Activity: Toxic
[14]
  inhibition at 72 h, 0.1 µM: 50.5%
[15]
  Activity: Active
[16]
  IC50 at 72 h: 100 nM
[17]
  Activity: Active
MCF7
  IC50: 56 nM
A549 [18]
  Activity: 57.7%
[19]
  Activity: Active
[20]
  Activity: Active
[21]
  selectivity ratio: 5.56
A549 [22]
  Activity: Active
